Measured values taken from patent US8246981B2, “Transdermal method and patch for emesis” (Abeille Pharamaceuticals, Inc., priority 2005, dated 2012).

Settings: IV bolus, once-daily 2 mg/day
Procedure: A randomized crossover clinical study was conducted in 11 individuals who received either a transdermal patch or an IV solution of granisetron. […] This was followed by a 10 day wash-out period, after which the same individuals received granisetron IV in once-daily dosages of 2 mg/day Individuals who received the IV treatment in the first period received a transdermal patch in the cross over treatment. Blood plasma levels of granisetron for all of the individuals in the test were measured periodically during the 96 hour time that the patches were being worn and the IV dosages were being administered, and for an additional 2 days after the patches were removed and the IV administration discontinued.

blood plasma level profile: sharp spikes in blood plasma levels
Structure (SMILES): CN1C2CCCC1CC(NC(=O)c1nn(C)c3ccccc13)C2 (stereo not shown) [IV granisetron, granisetron]
